Results from patent US20200010519A1, “NUCLEASE FUSIONS FOR ENHANCING GENOME EDITING BY HOMOLOGY-DIRECTED TRANSGENE INTEGRATION” (INSTITUT NATIONAL DE LA SANTE ET DE LA RECHERCHE …, priority 2017, published 2020).

Legend:
JAK (spacer 54) = assay: Indel mutation patterns by deep sequencing of PCR amplicons, HEK293 cells; type: cell-based, human
[1] = system: JAK and PCSK genes, AAVS1 locus; assay: Indel mutation patterns, all three guide RNAs taken together, HEK293 cells; type: cell-based, human; conditions: compared to Cas9, three guide RNAs

Compound: O=c1cc(N2CCOCC2)oc2c(-c3cccc4c3sc3ccccc34)cccc12 [NU7441]
- reduction of the two most frequent mutations observed with Cas9 (JAK (spacer 54)): 10 fold
- indels with increased frequency that were deletions flanked by micro-homologies of 2 or more nucleotides [1]: 10 out of 12
